The source of these data is patent publication US7981882B2, “6-N-linked heterocycle-substituted 2,3,4,5-tetrahydro-1H-benzo[d]azepines as 5-HT2C receptor agonists” (Eli Lilly and Company, priority 2005, dated 2011).

The subject of experiment [1] is Wistar rats. Particulars: cited from earlier work.
In experiment [2] the test system is male NIH Swiss mice. Kind of experiment: Marble burying assay. The experiment is classed as in vivo, mouse. Particulars: 30 min test, rotorod before. From the text: Marble burying in mice has been used to model anxiety disorders including obsessive-compulsive disorders (OCD) due to ethological study of the behavior (e.g. Gyertyan I. “Analysis of the marble burying response: Marbles serve to measure digging rather than evoke burying”, Behavioural Pharmacology 6: 24-31, (1995)) and due to the pharmacological effects of clinical standards (c.f., Njung'E K. Handley S L. “Evaluation of marble-burying behavior as a model of anxiety”, Pharmacology, Biochemistry & Behavior. 38: 63-67, (1991)); Borsini F., Podhoma J., and Marazziti, D. “Do animal models of anxiety predict anxiolytic effects of antidepressants?”, Psychopharmacology 163: 121-141, (2002)).
House experimentally-naïve male, NIH Swiss mice (Harlan Sprague-Dawley, Indianapolis, Ind.) weighing between 28-35 g in groups of 12 for at least three days prior to testing in a vivarium with 12 h light and dark cycles. Conduct experiments during the light cycle in a dimly lit experimental testing room. Dose mice with vehicle or test compound and, after a specified pretreatment interval (generally 30 min.), place each mouse individually on a rotorod (Ugo Basile 7650) operating at a speed of 6 revolutions/min. and observe for falling. […]
Clinically effective standard compounds suppress marble burying at doses that are devoid of motor-impairing effects as measured on the rotorod. […]
For orientation: The rotarod test checks motor coordination on a turning rod.

Experiment [3] has as its system Wistar rats. The experiment in a line: Schedule-induced polydipsia. The experiment is classed as in vivo, rat. From the text:
Schedule-Induced Polydipsia
Food-deprived rats exposed to intermittent presentations of food will drink amounts of water that are far in excess of their normal daily intake and in excess of their intake when given all of their food at one time (Falk J L. “Production of polydipsia in normal rats by an intermittent food schedule”, Science 133: 195-196, (1961)). This excessive behavior is persistent and has been used to model OCD.
Maintain Wistar rats on a food restricted diet (to maintain 85% free feeding weight), but with free access to water. Train the rats in a behavioral testing chamber to press a lever to receive a food pellet under a fixed interval schedule, such that the rats are rewarded with a 45 mg food pellet the first time they press a lever after a 120 second interval has elapsed. The fixed interval is then reset to 120 seconds and the process repeated. Thus, during a 90 min. test session, the rats can earn a maximum of 45 pellets. The behavioral chamber is also equipped with a water bottle that is weighed before and after the session to determine the amount of water consumed.
Administer test compounds on Tuesdays and Fridays. […] Compare the rates of lever pressing and water consumption for each animal's performance during sessions after test compound treatment with that animal's performance during control sessions, expressed as a percent of the control rate. […]

The subject of experiment [4] is male NIH Swiss mice. The experiment in a line: Nestlet shredding. Type of experiment: in vivo, mouse. Particulars: 30 min test. The text has this:
Mice naturally will construct nests of material available in their living environment. Since this behavior is obsessive in nature, it has been used to model OCD (Xia Li, Denise Morrow and Jeffrey M. Witkin, “Decreases in nestlet shredding of mice by serotonin uptake inhibitors: comparison with marble burying”, Psychopharmacology, submitted Jul. 14, 2003). House experimentally-naïve male, NIH Swiss mice (Harlan Sprague-Dawley, Indianapolis, Ind.) weighing between 28-35 g in groups of 12 for at least three days prior to testing in a vivarium with a 12 h light/dark cycle. Conduct experiments during the light cycle in an experimental room with normal overhead fluorescent lighting. Dose mice with vehicle or test compound and after a specified pretreatment interval (generally 30 min.), place the mice individually in a 17×28×12 cm high plastic tub with about 5 mm sawdust shavings on the floor along with a pre-weighed multi-ply gauze pad (51 mm square). After 30 min., weigh the remainder of the gauze pad not removed by the mouse. Determine the weight of the gauze used for nestlet construction by subtraction. Compare the results for test compound treated mice to the results for vehicle control treated mice with Dunnett's test.
Clinically effective OCD treatment standard compounds suppress nestlet shredding at doses that are devoid of motor-impairing effects as measured by the rotorod test. […]

Experiment [5] has as its system male NIH Swiss mice. Particulars: cited from earlier work.

Each structure is given as a SMILES string.

For `CN(C)CCCN1c2ccccc2CCc2ccc(Cl)cc21` [chlomipramine], the “Schedule-induced polydipsia (clinically effective OCD treatment standards)” value in experiment [1] was “suppress schedule-induced polydipsia without producing notable changes in motor patterns, food intake, or behavior the following day”.

`CN(C)CCCN1c2ccccc2Sc2ccc(Cl)cc21` [chlorpromazine]: in experiment [2], the “Marble burying behavior (with rotorod performance)” value is recorded as “decrease marble burying only at doses that also disrupt rotorod performance”.

`C[C@H](N)Cc1ccccc1` [d-amphetamine]: in experiment [3], the “Suppression of excessive drinking with co-administration of 5-HT2C antagonist” value is “not prevented by the 5HT2C receptor antagonist”. Further, the “Schedule-induced polydipsia (excessive drinking)” value in experiment [3] (90 min session) is listed as “decreases excessive drinking only at behaviorally stimulating doses”. Also, the “Nestlet shredding (with motor effects)” value in experiment [4] was “decreases nestlet shredding only at doses that produce motoric side effects”.

As for `CNCCC(Oc1ccc(C(F)(F)F)cc1)c1ccccc1` (stereo not shown) [fluoxetine], the “Schedule-induced polydipsia (clinically effective OCD treatment standards)” value in experiment [1] is given as “suppress schedule-induced polydipsia without producing notable changes in motor patterns, food intake, or behavior the following day”. In experiment [5], the “Marble burying (clinical standards, literature)” value is on record as “decrease burying”.
